Test results as given in paper PMC9045377, “CpxA Phosphatase Inhibitor Activates CpxRA and Is a Potential Treatment for Uropathogenic Escherichia coli in a Murine Model of Infection” (Microbiology Spectrum, 2022).
Entries after “also recorded” stand apart in the source; their conditions may differ. Structures can show the parent of a compound that is named as a salt.

Legend:
UPEC strain CFT073 [1] = assay type: in vivo, Escherichia coli (in female CBA/J mice); details: compound 6 trial
Method: Four groups of eight female CBA/J mice were transurethrally inoculated with a target dose of ∼10^8 CFU of either CFT073 or CFT073ΔcpxA::cat. One group was treated with ciprofloxacin (2.5 mg/kg/dose dissolved in sterile distilled water) s.c. 12, 24, 36, 48, and 60 h after inoculation with CFT073 as described ([31]). The untreated CFT073 and CFT073ΔcpxA::cat inoculated groups were given the vehicle control s.c. at 12, 24, 36, 48, and 60 h after inoculation. The compound 6 treated group were given the drug (100 mg/kg) s.c. at 12, 36, and 60 h after inoculation with CFT073 and received the vehicle control s.c. at 24 and 48 h. The animals were sacrificed 4 h after the last treatment (64 h postinoculation) and CFU per milliliter or CFU per gram of tissue was determined in the urine, bladder, and kidneys.
Animal experiments were conducted according to the guidelines of the University of Michigan Institutional Animal Care and Use Committee. For the animal infection experiments, bacterial strains were cultured at 37°C in LB medium overnight with shaking ([30]). Female CBA/J mice (Jackson Laboratories, Bar Harbor, ME) were inoculated transurethrally with a target dose of ∼10^8 CFU of CFT073 or CFT073ΔcpxA::cat. Mice were subsequently treated 12 h later either with the vehicle, ciprofloxacin hydrochloride (PanReac AppliChem ITW Reagents; Jade Scientific), compound 1, compound 6, or compound 26 as described in Results and euthanized 4 h after the last treatment. Bacterial loads of each strain were calculated from the urine, bladder, and kidneys of mice as previously described; the limits of detection for these assays were 100 CFU/mL or 100 CFU/g of urine and tissue, respectively ([33]). Values of 50 CFU/mL or 50 CFU/g were assigned to specimens whose yields were below the limit of detection.
Due to the extreme skewness of the data, natural log transformation was used before the data were analyzed statistically. Descriptive statistics were calculated for all of the log-transformed variables. Statistical comparisons were done using analysis of variance (ANOVA) with follow-up pairwise tests adjusted for multiple comparisons using the Tukey procedure.

UPEC strain CFT073 [2] = assay type: in vivo, Escherichia coli (in female CBA/J mice)
[3] = Toxicity / clinical signs in mice; assay type: in vivo, female CBA/J mice; details: 100 mg/kg s.c. twice a day for 3 days
Method: We tested our initial hit, compound 1 ([31]) (Fig. 1), for toxicity in a murine model using criteria described in Materials and Methods. […] To test compound 1 for efficacy, female CBA/J mice were transurethrally inoculated with ∼1 × 10^8 CFU of UPEC strain CFT073; 12 h later, mice were treated with 100 mg/kg compound 1 (n = 10) or the vehicle control (n = 5) s.c. twice a day for 3 days and then sacrificed 4 h after the last dose. No effect was seen on the recovery of E. coli CFT073 in the urine, bladder, or kidneys (see Fig. S1 in the supplemental material). As compound 1 lacked efficacy, we aimed to improve the scaffold to enhance potency and eliminate the nitro group liability ([32]).
We developed a high-performance liquid chromatography-tandem mass spectrometry (HPLC-MS/MS) assay to measure compound 6 with a lower limit of quantification of 1 ng/mL. Single-dose PK parameters of compound 6 were determined in female CBA/J mice (n = 15) given 100 mg/kg s.c. dissolved in the vehicle. Blood was obtained from groups of 3 mice 1, 2, 4, 8, and 24 h postinjection.
Animal experiments were conducted according to the guidelines of the Indiana University School of Medicine Institutional Animal Care and Use Committee by the IU Simon Comprehensive Cancer Center In Vivo Therapeutics Core, a component of the Indiana Clinical Translational Science Institute. For the pilot toxicity study with compound 1, 4- to 6-week-old CBA/J female mice were obtained from Jackson Laboratory (Bar Harbor, ME) and were treated with compound 1 or the vehicle control twice a day for 3 days as described in the results. […] Toxicity was determined by the following criteria: deteriorating health-hunched posture, lack of grooming, failure to thrive, failure to eat and drink for >48 h, rapid loss of 15 to 20% body weight, inactivity with hunched posture, loss of righting reflex and inability to maintain upright posture, loss of general body condition with spine becoming visible, and dehiscence of wounds and/or evidence of infection at injection sites not responsive to veterinary treatment.

CpxRA = tested on: CpxRA; parameters: method as in PMID 31104993; details: β-galactosidase reporter assay in E. coli; read-out: mean 50% effective concentration (EC50), CpxRA activation; cited from earlier work

| Structure (SMILES) | CFU of CFT073 recovered in urine vs CFT073-inoculated vehicle control (UPEC strain CFT073 [1]; 8 mice/group, compound 6 100 mg/kg s.c. at 12, 36, 60 h, ciprofloxacin 2.5 mg/kg/dose s.c. at 12, 24, 36, 48, 60 h, sacrifice 64 h) | CFU of CFT073 recovered in kidneys vs CFT073-inoculated vehicle control (UPEC strain CFT073 [1]; same regimens) | recoverable CFU in urine vs CFT073-inoculated vehicle-treated controls (UPEC strain CFT073 [2]; compound 26 trial, 8 mice/group, compound 26 100 mg/kg s.c. at 12, 36, 60 h, ciprofloxacin 2.5 mg/kg/dose s.c. at 12, 24, 36, 48, 60 h, sacrifice 64 h) | recoverable CFU in kidneys vs CFT073-inoculated vehicle-treated controls (UPEC strain CFT073 [2]; compound 26 trial, same regimens) | duration of decreased activity after each dose [3] [min] | toxicity ([3]; n = 3, observed 14 days) | EC50 (CpxRA) [µM] | recovery of E. coli CFT073 in the urine, bladder, or kidneys vs vehicle control (UPEC strain CFT073 [2]; 100 mg/kg s.c. twice a day for 3 days from 12 h after ~1 × 10^8 CFU transurethral, sacrificed 4 h after last dose) |
| --- | --- | --- | --- | --- | --- | --- | --- | --- |
| O=C(O)c1cn(C2CC2)c2cc(N3CCNCC3)c(F)cc2c1=O [ciprofloxacin, ciprofloxacin hydrochloride, reference compound] | significantly reduced | significantly reduced | significantly lower | significantly lower |  |  |  |  |
| NC1CCCc2c1[nH]c1ccc([N+](=O)[O-])cc21 (centres unmarked) [compound 1, 6-nitro-2,3,4,9-tetrahydro-1H-carbazol-1-amine] |  |  |  |  | 20 | exhibited no toxicity | 24.8 | no significant; also recorded: No effect |
